Earlier results on one compound are cited in patent US20110171165A1 (priority 2008, published 2011).

This data set concerns the target δ receptors (Cavia porcellus, UniProt A0A286XTF2). Conditions: read-out: affinity for δ receptors; guinea-pig brain membranes.

Chain of δ receptors (A0A286XTF2 1-366): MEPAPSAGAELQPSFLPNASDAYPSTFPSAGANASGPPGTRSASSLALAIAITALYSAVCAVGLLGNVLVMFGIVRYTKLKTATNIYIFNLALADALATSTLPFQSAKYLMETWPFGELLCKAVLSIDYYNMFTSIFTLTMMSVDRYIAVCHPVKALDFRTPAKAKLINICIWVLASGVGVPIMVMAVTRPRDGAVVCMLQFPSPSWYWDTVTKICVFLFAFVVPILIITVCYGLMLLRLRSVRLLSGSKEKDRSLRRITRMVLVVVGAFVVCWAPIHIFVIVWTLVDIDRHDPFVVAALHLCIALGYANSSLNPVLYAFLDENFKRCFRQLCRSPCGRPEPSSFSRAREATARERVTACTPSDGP

For `CSCC[C@H](NC(=O)[C@H](Cc1ccccc1)NC(=O)CNC(=O)CNC(=O)[C@@H](N)Cc1ccc(O)cc1)C(=O)O` [OGF, Tyr-Gly-Gly-Phe-Met], the Ki was 0.9 nM.
